# From ChEMBL document CHEMBL2169821, “Design, synthesis, and evaluation of pH-dependent hydrolyzable emetine analogues as treatment for prostate cancer” (J Med Chem, 2012)
# Active and inactive are the calls of the source. No cut-off for these calls is given here.
# Experiments:
# PC-3 [1] = assay: Cytotoxicity against human PC3 cells measured on day 3 by MTT assay; type: functional, cell-based
# PC-3 [2] = assay: Cytotoxicity against human PC3 cells measured on day 5 by MTT assay; type: functional, cell-based
# [3] = Chemical stability of the compound in phosphate buffer up to 48 hrs at pH 6.5 by HPLC analysis; type: physicochemical; details: pH 6.5, 48 h
# PC-3 [4] = assay: Cytotoxicity against human PC3 cells measured on day 7 by MTT assay; type: functional, cell-based
# LNCaP [5] = assay: Cytotoxicity against human LNCAP cells measured on day 7 by MTT assay; type: functional, cell-based
# [6] = Chemical stability of the compound in phosphate buffer up to 48 hrs at pH 5.5 by HPLC analysis; type: physicochemical; details: pH 5.5, 48 h
# Mus musculus [7] = assay: Toxicity in Balb/c mouse assessed as weight loss at 33 mg/kg, iv qd administered as bolus for 5 days measured within 48 hrs relative to untreated control; type: organism-based; set-up: dose 33 mg/kg, route intravenous; details: in vivo
# Mus musculus [8] = assay: Toxicity in Balb/c mouse assessed as mortality at 100 mg/kg, iv administered as bolus measured within 48 hrs; type: organism-based; set-up: dose 100 mg/kg, route intravenous; details: in vivo
# PC-3 [9] = assay: Cytotoxicity against human PC3 cells by MTT assay; type: functional, cell-based; details: TDE = time-dependent effect
# DU-145 [10] = assay: Cytotoxicity against human DU145 cells by MTT assay; type: functional, cell-based; details: TDE = time-dependent effect
# LNCaP [11] = assay: Cytotoxicity against human LNCAP cells measured on day 3 by MTT assay; type: functional, cell-based
# Mus musculus [12] = assay: Toxicity in Balb/c mouse assessed as mortality at 33 mg/kg, iv qd administered as bolus for 5 days measured up to 5 days; type: organism-based; set-up: dose 33 mg/kg, route intravenous; details: in vivo, 120 h
# LNCaP [13] = assay: Cytotoxicity against human LNCAP cells by MTT assay; type: functional, cell-based; details: TDE = time-dependent effect
# DU-145 [14] = assay: Cytotoxicity against human DU145 cells measured on day 5 by MTT assay; type: functional, cell-based
# Mus musculus [15] = assay: Toxicity in Balb/c mouse assessed as lethargy at 33 mg/kg, iv qd administered as bolus for 5 days measured within 48 hrs; type: organism-based; set-up: dose 33 mg/kg, route intravenous; details: in vivo
# DU-145 [16] = assay: Cytotoxicity against human DU145 cells measured on day 7 by MTT assay; type: functional, cell-based
# Mus musculus [17] = assay: Toxicity in Balb/c mouse assessed as weight loss at 33 mg/kg, iv qd administered as bolus for 5 days measured within 24 hrs (reference value: 1.7%); type: organism-based; set-up: dose 33 mg/kg, route intravenous; details: in vivo
# LNCaP [18] = assay: Cytotoxicity against human LNCAP cells measured on day 5 by MTT assay; type: functional, cell-based
# DU-145 [19] = assay: Cytotoxicity against human DU145 cells measured on day 3 by MTT assay; type: functional, cell-based
# [20] = Chemical stability of the compound in phosphate buffer up to 5 days at pH 7.4 by HPLC analysis; type: physicochemical; details: phosphate buffer, pH 7.4; read-out: Stability
# [21] = Prodrug activation in phosphate buffer assessed as emetine formation up to 48 hrs at pH 5.5 by HPLC analysis; details: pH 5.5, 48 h
compound,measurement,setting,value
CC[C@H]1CN2CCc3cc(OC)c(OC)cc3[C@@H]2C[C@@H]1C[C@@H]1c2cc(OC)c(OC)cc2CCN1C(=O)/C=C\C(=O)O,Activity,PC-3 [1],Active
same,Activity,PC-3 [2],Active
CC[C@H]1CN2CCc3cc(OC)c(OC)cc3[C@@H]2C[C@@H]1C[C@@H]1c2cc(OC)c(OC)cc2CCN1C(=O)NCc1ccccc1,Stability,[3],Stable
same,IC50,"PC-3 [4]; Homo sapiens, PC-3, 168 h",7.61 µM
same,Activity,PC-3 [1],Active
same,IC50,"LNCaP [5]; Homo sapiens, LNCaP, 168 h",2.12 µM
same,Activity,PC-3 [2],Active
same,Stability,[6],Stable
CC[C@H]1CN2CCc3cc(OC)c(OC)cc3[C@@H]2C[C@@H]1C[C@@H]1c2cc(OC)c(OC)cc2CCN1S(=O)(=O)c1ccc(Cl)cc1,Stability,[3],Stable
same,IC50,"PC-3 [4]; Homo sapiens, PC-3, 168 h",4.21 µM
same,Activity,PC-3 [1],Active
same,IC50,"LNCaP [5]; Homo sapiens, LNCaP, 168 h",2.69 µM
same,Activity,PC-3 [2],Active
same,Stability,[6],Stable
CC[C@H]1CN2CCc3cc(OC)c(OC)cc3[C@@H]2C[C@@H]1C[C@@H]1c2cc(OC)c(OC)cc2CCN1C(=S)NCc1ccc(Cl)cc1,Stability,[3],Stable
same,IC50,"PC-3 [4]; Homo sapiens, PC-3, 168 h",2.86 µM
same,Activity,PC-3 [1],Active
same,IC50,"LNCaP [5]; Homo sapiens, LNCaP, 168 h",1.59 µM
same,Activity,PC-3 [2],Active
same,Stability,[6],Stable
CC[C@H]1CN2CCc3cc(OC)c(OC)cc3[C@@H]2C[C@@H]1C[C@@H]1c2cc(OC)c(OC)cc2CCN1C(=O)CCC(=O)O,IC50,PC-3 [4]; pc-3,2.1 µM
same,IC50,LNCaP [5]; lncap,2.41 µM
CC[C@H]1CN2CCc3cc(OC)c(OC)cc3[C@@H]2C[C@@H]1C[C@@H]1c2cc(OC)c(OC)cc2CCN1S(=O)(=O)c1ccc(OC)cc1,Stability,[3],Stable
same,IC50,"PC-3 [4]; Homo sapiens, PC-3, 168 h",6.08 µM
same,IC50,"LNCaP [5]; Homo sapiens, LNCaP, 168 h",3.15 µM
same,Activity,PC-3 [2],Active
same,Stability,[6],Stable
CC[C@H]1CN2CCc3cc(OC)c(OC)cc3[C@@H]2C[C@@H]1C[C@@H]1c2cc(OC)c(OC)cc2CCN1C(=S)NCc1ccc(OC)cc1,Stability,[3],Stable
same,IC50,"PC-3 [4]; Homo sapiens, PC-3, 168 h",5 µM
same,IC50,"LNCaP [5]; Homo sapiens, LNCaP, 168 h",3.39 µM
same,Activity,PC-3 [2],Active
same,Stability,[6],Stable
CC[C@H]1CN2CCc3cc(OC)c(OC)cc3[C@@H]2C[C@@H]1C[C@H]1NCCc2cc(OC)c(OC)cc21.Cl.Cl [EMETINE HYDROCHLORIDE],Activity,Mus musculus [7],3.6%
same,Activity,Mus musculus [8],Toxic
same,Activity,PC-3 [9],tde
same,Activity,DU-145 [10],tde
same,Activity,LNCaP [11],Dose-dependent effect
same,IC50,LNCaP [11]; 72 h,0.0379 µM
same,Activity,Mus musculus [12],Non-toxic
same,Activity,LNCaP [13],tde
same,Activity,PC-3 [4],Dose-dependent effect
same,IC50,"PC-3 [4]; Homo sapiens, PC-3, 168 h",0.0294 µM
same,Activity,DU-145 [14],Dose-dependent effect
same,IC50,"DU-145 [14]; DU-145, 120 h",0.0253 µM
same,Activity,Mus musculus [15],Toxic
same,Activity,DU-145 [16],Dose-dependent effect
same,IC50,"DU-145 [16]; DU-145, 168 h",0.0237 µM
same,Activity,Mus musculus [17],4.5%
same,Activity,PC-3 [1],Dose-dependent effect
same,IC50,"PC-3 [1]; PC-3, 72 h",0.0351 µM
same,Activity,LNCaP [18],Dose-dependent effect
same,Activity,DU-145 [19],Dose-dependent effect
same,IC50,"DU-145 [19]; DU-145, 72 h",0.0329 µM
same,Activity,LNCaP [5],Dose-dependent effect
same,IC50,"LNCaP [5]; Homo sapiens, LNCaP, 168 h",0.0316 µM
same,Activity,PC-3 [2],Dose-dependent effect
same,IC50,"PC-3 [2]; PC-3, 120 h",0.0268 µM
CC[C@H]1CN2CCc3cc(OC)c(OC)cc3[C@@H]2C[C@@H]1C[C@@H]1c2cc(OC)c(OC)cc2CCN1C(=O)/C=C(/CC(=O)[O-])C(=O)[O-].[Na+].[Na+],IC50,"PC-3 [4]; Homo sapiens, PC-3, 168 h",2.89 µM
same,remaining at 120 h,[20],100%
same,Drug metabolism,[21],Active
same,Activity,PC-3 [1],Active
same,IC50,"LNCaP [5]; Homo sapiens, LNCaP, 168 h",5.46 µM
same,Activity,PC-3 [2],Active
CC[C@H]1CN2CCc3cc(OC)c(OC)cc3[C@@H]2C[C@@H]1C[C@@H]1c2cc(OC)c(OC)cc2CCN1C(=O)NCc1ccc(OC)cc1,Stability,[3],Stable
same,IC50,"PC-3 [4]; Homo sapiens, PC-3, 168 h",3.67 µM
same,Activity,PC-3 [1],Active
same,IC50,"LNCaP [5]; Homo sapiens, LNCaP, 168 h",7.84 µM
same,Activity,PC-3 [2],Active
same,Stability,[6],Stable
CC[C@H]1CN2CCc3cc(OC)c(OC)cc3[C@@H]2C[C@@H]1C[C@@H]1c2cc(OC)c(OC)cc2CCN1C(=O)NCc1ccc(Cl)cc1,Stability,[3],Stable
same,IC50,"PC-3 [4]; Homo sapiens, PC-3, 168 h",10 µM
same,Activity,PC-3 [1],Active
same,IC50,"LNCaP [5]; Homo sapiens, LNCaP, 168 h",5.41 µM
same,Activity,PC-3 [2],Active
same,Stability,[6],Stable
